Experimental data taken from patent US4632940A, “N-substituted 1-(4'-alkylsulfonylphenyl)-2-amino-1,3-propanediols, pharmaceutical compositions containing them, having local anesthetic activity” (Zambon S.p.A., priority 1983, dated 1986).
Where a name gives a salt, the structure may show the parent alone.

Key:
Assay type in all cases: in vivo
[1] = tested on: cutaneous reflex after stimulation (guinea-pig back); test: Local anesthetic activity, intradermal infiltration in the back of guinea-pig (Bulbring and Wayda); conditions: drug concentration inhibiting 50% of the occurence of the cutaneous reflex, 95% c.l. in parentheses
mouse = test: in vivo; conditions: for LD50: mouse, i.v., administered as hydrochloride, observed for 24 hrs, 1440 min; for Therapeutic Index LD50/ED50: ratio of LD50 (mouse, i.v.) to ED50 (guinea pig local infiltration)
Text: (§1) Toxicity study in mouse has been performed by intravenous administration.

in vivo = conditions: in vivo, iv
Text: as §1

SMILES | LOCAL ANESTHETIC ACTIVITY ED50 (c.l. 95%) [1] | LD50 (mouse) [mmols/kg/iv] | Therapeutic Index LD50/ED50 (mouse) | other results
CC(COc1ccccc1)N[C@@H](CO)[C@@H](O)c1ccc(S(C)(=O)=O)cc1 (relative stereo) [Z. 1402, (1S,2S)-1-(4-methylsulfonylphenyl)-2-(1-methyl-2-phenoxyethylamino)-1,3-propanediol] | 0.075 (0.05-0.1) mM | 0.30 | 4 | 
CC(COc1ccccc1)N[C@@H](CO)[C@@H](O)c1ccc(S(C)(=O)=O)cc1 (relative stereo) [Z. 1403, (1S,2S)-1-(4-methylsulfonylphenyl)-2-(1-methyl-2-phenoxyethylamino)-1,3-propanediol] | 0.049 mM | 0.80 | 16 | 
CCN(CC)CC(=O)Nc1c(C)cccc1C [Lidocaine, reference compound] |  |  |  | LOCAL […] ED50 (c.l. 95%) [1]: 0.49 (0.34-0.71) mM
CCN(CC)CCOC(=O)c1ccc(N)cc1 [Procaine, reference compound] | 2.3 (1.7-3.1) mM |  |  | 
CS(=O)(=O)c1ccc([C@@H](O)[C@@H](CO)NCCC(c2ccccc2)c2ccccc2)cc1 [Z. 1395, (1R,2R)-1-(4-methylsulfonylphenyl)-2-(3,3-diphenylpropylamino)-1,3-propanediol maleate acid] | 0.73 (0.57-0.94) mM |  |  | 
CS(=O)(=O)c1ccc([C@H](O)[C@H](CO)NCCC(c2ccccc2)c2ccccc2)cc1 [Z. 1396] | 0.36 (0.21-0.60) mM |  |  | selectivity ratio (in vivo; ratio of LD50 (mouse, i.v.) to ED50 (guinea pig local infiltration), read-out: Therapeutic Index LD50/ED50): 0.5; LD50 at 24 h (in vivo; mouse, administered as hydrochloride, observed for 24 hrs): 160 µmol/kg
